The assay deals with T1, Dipeptidyl peptidase-IV (DPP-IV) (Homo sapiens, UniProt P27487).
T1 construct: gene DPP4
Put plainly: Fluorogenic enzyme inhibition assay (Cayman DPP-IV inhibitor screening kit […], Gly-Pro-AMC substrate). Format: biochemical.

SMILES strings stand for the structures.

T1 sequence (P27487 39-766): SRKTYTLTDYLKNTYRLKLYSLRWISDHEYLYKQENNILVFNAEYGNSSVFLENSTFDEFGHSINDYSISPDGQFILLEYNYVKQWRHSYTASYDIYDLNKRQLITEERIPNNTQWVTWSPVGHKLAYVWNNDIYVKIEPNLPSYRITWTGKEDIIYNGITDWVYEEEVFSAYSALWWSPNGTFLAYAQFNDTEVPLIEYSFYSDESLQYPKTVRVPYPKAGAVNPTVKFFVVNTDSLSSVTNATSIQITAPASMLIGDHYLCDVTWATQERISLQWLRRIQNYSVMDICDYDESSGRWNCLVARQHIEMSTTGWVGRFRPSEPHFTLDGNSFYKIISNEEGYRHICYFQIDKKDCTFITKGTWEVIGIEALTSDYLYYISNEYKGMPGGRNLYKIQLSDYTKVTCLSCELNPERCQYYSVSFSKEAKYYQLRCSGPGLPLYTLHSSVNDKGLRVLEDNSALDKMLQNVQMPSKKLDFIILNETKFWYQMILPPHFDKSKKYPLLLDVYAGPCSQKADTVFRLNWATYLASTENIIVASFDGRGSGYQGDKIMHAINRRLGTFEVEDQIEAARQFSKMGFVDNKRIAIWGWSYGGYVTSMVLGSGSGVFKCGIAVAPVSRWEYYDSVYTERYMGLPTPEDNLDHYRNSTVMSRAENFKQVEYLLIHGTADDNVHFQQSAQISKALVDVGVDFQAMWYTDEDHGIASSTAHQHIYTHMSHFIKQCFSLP

Compound `COc1cc(/C=C/C(=O)COC(=O)/C=C/c2ccc(O)c(OC)c2)ccc1O` [CA, Calebin A] had an IC50 of 6.09 ± 0.41 µM.

Values taken from PMC8642699, “Dipeptidyl peptidase-IV inhibitory action of Calebin A: An in silico and in vitro analysis” (Journal of Ayurveda and Integrative Medicine, 2021).
